# Measurements published in the supplement of paper PMC10307832.
# What was measured:
# Test in all cases: relative viability (nuclei count vs DMSO), 5 days (fraction); higher = more cells survive
# Etoposide + Trametinib = compound: COc1cc([C@@H]2c3cc4c(cc3[C@@H](O[C@@H]3O[C@@H]5CO[C@@H](C)O[C@H]5[C@H](O)[C@H]3O)[C@H]3COC(=O)[C@H]23)OCO4)cc(OC)c1O [Etoposide] + CC(=O)Nc1cccc(-n2c(=O)n(C3CC3)c(=O)c3c(Nc4ccc(I)cc4F)n(C)c(=O)c(C)c32)c1 [Trametinib] (partner 0.02 µM)
# In short: (§1)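 Five library-drug doses in √10 steps were combined with a fixed anchor-drug dose, or a single drug was given alone, by pin tool to lung cancer cell lines in 1536-well plates the day after seeding. Nuclei were stained and counted after 5 days. Relative viability is the nuclei count in treated wells over that in vehicle wells, taken as the median of duplicate plates.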
# Bleomycin + Olaparib = compound: CC1=C(N=C(N=C1N)[C@H](CC(=O)N)NC[C@@H](C(=O)N)N)C(=O)N[C@@H]([C@H](C2=CN=CN2)OC3C(C(C(C(O3)CO)O)O)OC4C(C(C(C(O4)CO)O)OC(=O)N)O)C(=O)N[C@H](C)[C@H]([C@H](C)C(=O)N[C@@H]([C@@H](C)O)C(=O)NCCC5=NC(=CS5)C6=NC(=CS6)C(=O)NCCC[S+](C)C)O [Bleomycin] + O=C(c1cc(Cc2n[nH]c(=O)c3ccccc23)ccc1F)N1CCN(C(=O)C2CC2)CC1 [Olaparib] (partner 8 µM); conditions: main component drawn
# In short: as §1
# Etoposide + Crizotinib = compound: COc1cc([C@@H]2c3cc4c(cc3[C@@H](O[C@@H]3O[C@@H]5CO[C@@H](C)O[C@H]5[C@H](O)[C@H]3O)[C@H]3COC(=O)[C@H]23)OCO4)cc(OC)c1O [Etoposide] + C[C@@H](Oc1cc(-c2cnn(C3CCNCC3)c2)cnc1N)c1c(Cl)ccc(F)c1Cl [Crizotinib] (partner 1 µM)
# In short: as §1
# Etoposide + OSI-027 = compound: COc1cc([C@@H]2c3cc4c(cc3[C@@H](O[C@@H]3O[C@@H]5CO[C@@H](C)O[C@H]5[C@H](O)[C@H]3O)[C@H]3COC(=O)[C@H]23)OCO4)cc(OC)c1O [Etoposide] + COc1cccc2cc(-c3nc([C@H]4CC[C@H](C(=O)O)CC4)n4ncnc(N)c34)[nH]c12 [OSI-027] (partner 0.5 µM)
# In short: as §1
Cell Line,relative viability (Etoposide + Trametinib; first compound 0.01 µM),relative viability (Etoposide + Trametinib; first compound 0.03162 µM),relative viability (Etoposide + Trametinib; first compound 0.1 µM),relative viability (Etoposide + Trametinib; first compound 0.3162 µM),relative viability (Etoposide + Trametinib; first compound 1 µM),relative viability (Bleomycin + Olaparib; first compound 0.01 µM),relative viability (Bleomycin + Olaparib; first compound 0.03162 µM),relative viability (Bleomycin + Olaparib; first compound 0.1 µM),relative viability (Bleomycin + Olaparib; first compound 0.3162 µM),relative viability (Bleomycin + Olaparib; first compound 1 µM),relative viability (Etoposide + Crizotinib; first compound 0.01 µM),relative viability (Etoposide + Crizotinib; first compound 0.03162 µM),relative viability (Etoposide + Crizotinib; first compound 0.1 µM),relative viability (Etoposide + Crizotinib; first compound 0.3162 µM),relative viability (Etoposide + Crizotinib; first compound 1 µM),relative viability (Etoposide + OSI-027; first compound 0.01 µM),relative viability (Etoposide + OSI-027; first compound 0.03162 µM),relative viability (Etoposide + OSI-027; first compound 0.1 µM),relative viability (Etoposide + OSI-027; first compound 0.3162 µM),relative viability (Etoposide + OSI-027; first compound 1 µM)
NCI-H1755,0.751,0.787,0.692,0.723,0.546,0.782,0.79,0.833,0.639,0.599,0.846,0.839,0.931,0.716,0.595,0.69,0.659,0.609,0.641,0.585
NCI-H727,0.395,0.43,0.378,0.338,0.355,0.732,0.634,0.612,0.592,0.624,0.771,0.683,0.867,0.766,0.585,0.724,0.674,–,0.542,0.513
HARA,0.628,0.638,1.01,0.592,0.353,0.733,0.942,0.701,0.247,0.351,0.801,1.11,1.11,0.611,0.192,0.517,0.554,0.151,0.422,0.118
NCI-H647,0.309,0.546,0.351,0.405,0.134,0.161,0.148,0.195,0.0429,0.0447,1.05,1.01,0.858,0.298,0.151,0.579,0.627,0.456,0.491,0.267
NCI-H2347,0.25,0.301,0.25,0.269,0.278,0.581,0.573,0.466,0.45,0.413,0.677,0.455,0.408,0.384,0.339,0.365,0.338,0.325,0.358,0.32
LCLC-97TM1,0.22,0.218,0.174,0.126,0.115,0.211,0.258,0.148,0.0871,0.0615,–,0.382,0.241,0.155,0.111,0.532,0.517,0.403,0.423,0.116
EPLC-272H,0.33,0.284,0.254,0.267,0.267,0.407,0.237,0.183,0.0606,0.111,1.07,1.03,0.628,0.703,0.489,0.287,0.293,0.209,0.326,0.243
NCI-H1915,0.275,0.343,0.253,0.262,0.282,0.2,0.226,0.166,0.137,0.11,0.859,0.985,0.825,0.802,0.481,0.598,0.637,0.492,0.572,0.504
NCI-H3122,0.23,0.223,0.153,0.23,0.215,0.593,0.599,0.506,0.364,0.279,0.307,0.288,0.231,0.262,0.246,0.799,0.985,0.404,0.722,0.349
NCI-H441,0.481,0.455,0.394,0.26,0.141,0.539,0.505,0.399,0.338,0.226,0.597,0.603,0.39,0.197,0.133,0.625,0.638,0.416,0.267,0.224
NCI-H2170,0.843,1.03,–,0.877,0.723,0.508,0.523,0.397,0.361,0.3,1.06,1.21,–,1,0.851,0.697,0.76,0.44,0.736,0.536
NCI-H358,0.141,0.122,0.119,0.118,0.0938,0.475,0.713,0.657,0.294,0.227,0.689,0.441,0.518,0.261,0.139,0.711,0.757,0.366,0.136,0.0875
PC-14,0.715,0.678,0.798,0.491,0.229,0.114,0.147,0.0932,0.0421,0.0404,0.957,0.896,0.951,0.728,0.59,0.815,0.945,0.58,0.587,0.275
CAL-12T,0.238,0.43,0.241,0.367,0.211,0.416,0.375,0.217,0.177,0.135,0.547,0.573,0.82,0.298,0.223,0.527,0.603,0.339,0.555,0.199
